Patent US10537565B2, “Solid forms of N-[2,4-bis(1,1-dimethylethyl)-5-hydroxyphenyl]-1,4-dihydro-4-oxoquinoline-3-carboxamide” (Vertex Pharmaceuticals Incorporated, priority 2005, dated 2020)
≈ marks a conversion by molar mass, not a printed value.

Key:
[1] = Bioavailability (PK) of solid state forms of Compound 1 in rat, oral dosing compared to IV solution; conditions: in vivo
Description: Bioavailability of crystalline Form B, 85% amorphous Compound 1 and HPMCAS solid dispersion of Compound 1 were evaluated in rat, the results of which are provided in Table 4 below. These forms of the compound were dosed in an oral suspension with a vehicle containing 0.5% methyl cellulose/0.5% SLS/99% water. Bioavailability of various solid forms was evaluated as compared to a multicomponent IV solution of Compound 1. Bioavailability of crystalline […] was 3-6%, compared to 61-95% for amorphous material and 109-111% for solid dispersion.

Solubility in FaSSIF = format: physicochemical

bioavailability ([1]; 50 mg/kg, % F) [%] | bioavailability ([1]; 200 mg/kg, % F) [%] | % F ([1]; po, 50 mg/kg) [%] | Tmax ([1]; po, 50 mg/kg) [h] | Tmax ([1]; po, 50 mg/kg, Tmax) [h] | % F ([1]; po, 200 mg/kg) [%] | solubility (Solubility in FaSSIF; listed as crystalline polymorph B) [µg/mL] | bioavailability ([1]; po) | AUC ([1]; po, 50 mg/kg) [µg·h/mL] | AUC ([1]; po, 200 mg/kg) [µg·h/mL] | Tmax ([1]; po, 200 mg/kg) [h] | solubility (Solubility in FaSSIF; listed as 85% amorphous material) [µg/mL] | Compound
74 | 67 | 5.5 | 4.0 | 5.5 | 3.1 | 1.0 (≈ 2.55 µM) | – | – | – | – | – | CC(C)(C)c1cc(C(C)(C)C)c(NC(=O)c2c[nH]c3ccccc3c2=O)cc1O [Crystalline, N-[2,4-bis(1,1-dimethylethyl)-5-hydroxyphenyl]-1,4-dihydro-4-oxoquinoline-3-carboxamide]
– | – | 95.0 | 6.0 | – | 61.0 | – | 61-95% | 135.5 | 371.9 | 6.0 | 67.4 (≈ 172 µM) | CC(C)(C)c1cc(C(C)(C)C)c(NC(=O)c2c[nH]c3ccccc3c2=O)cc1O [85% Amorphous, N-[2,4-bis(1,1-dimethylethyl)-5-hydroxyphenyl]-1,4-dihydro-4-oxoquinoline-3-carboxamide]
